Laboratory results taken from patent US20050209278A1, “Piperidinyl- and piperazinyl-sulfonylmethyl hydroxamic acids and their use as protease inhibitors” (priority 2002, published 2005).

Experiments:
MMP-13 = molecular target: T1, MMP-13 (Homo sapiens, UniProt P45452); assay: In vitro MMP inhibition, Ki determination (fluorogenic substrate II); type: biochemical; conditions: value not in parenthesis; read-out: MMP-13 Ki
T1 construct: made in house; host or cells: baculovirus / insect cells
In short: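 Room-temperature, 1 h incubation of APMA-activated recombinant human MMP-13 with 4 μM quenched substrate II (cleaved at Gly-Leu) in pH 7.5 Tris/NaCl/CaCl2 buffer. Inhibition appears as a slowed rise in 330/420 nm fluorescence. Single low enzyme and substrate levels were used for Ki.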

MMP-1 = molecular target: T2, MMP-1 (Homo sapiens, UniProt P03956); assay: as above; type: biochemical; conditions: value not in parenthesis; read-out: MMP-1 Ki
T2 construct: made in house; host or cells: MMP-1-transfected HT-1080 cells (spent media)
T2 sequence (P03956 100-469): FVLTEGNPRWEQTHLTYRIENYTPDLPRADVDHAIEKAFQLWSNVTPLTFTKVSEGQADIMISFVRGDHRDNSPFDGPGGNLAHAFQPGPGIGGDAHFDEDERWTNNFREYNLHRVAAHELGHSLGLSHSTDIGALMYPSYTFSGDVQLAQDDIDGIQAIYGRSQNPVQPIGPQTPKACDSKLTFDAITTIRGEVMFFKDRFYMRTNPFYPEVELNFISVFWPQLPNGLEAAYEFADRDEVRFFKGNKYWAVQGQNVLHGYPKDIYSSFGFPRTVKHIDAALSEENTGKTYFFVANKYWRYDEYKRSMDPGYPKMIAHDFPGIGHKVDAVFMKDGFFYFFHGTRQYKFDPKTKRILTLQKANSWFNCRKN

Ki (MMP-13) | Ki (MMP-1) | Structure (SMILES)
0.16 nM | 493 nM | COc1ccc(-c2ccc(N3CCN(S(=O)(=O)C4(C(=O)NO)CCOCC4)CC3)nc2)cc1 [Example 61]
0.5 nM | 2310 nM | O=C(NO)C1(S(=O)(=O)N2CCN(c3ccc(OC(F)(F)C(F)F)cc3)CC2)CCSCC1 [Example 62]
3.16 nM | > 10000 nM | CCCCOc1ccc(N2CCN(S(=O)(=O)C3(C(=O)NO)CC3)CC2)cc1 [Example 63]
32.7 nM | > 10000 nM | CCCCOc1ccc(N2CCN(S(=O)(=O)C3(C(=O)NO)CCN(c4ccc(OC(F)(F)C(F)F)cc4)CC3)CC2)cc1 [Example 65]
156 nM | > 10000 nM | O=C(NO)C1(S(=O)(=O)N2CCN(c3ccc4c(c3)OC(F)(F)C(F)(F)O4)CC2)CCOCC1 [Example 67]
0.61 nM | > 10000 nM | O=C(NO)C1(S(=O)(=O)N2CCN(c3ccc(COCC(F)(F)C(F)(F)F)cc3)CC2)CCOCC1 [Example 70]
0.31 nM | > 10000 nM | CCCCOc1ccc(N2CCN(S(=O)(=O)C3(C(=O)NO)CCN(C(=O)c4ccco4)CC3)CC2)cc1 [Example 156]
1.02 nM | > 10000 nM | CCCCOc1ccc(N2CCN(S(=O)(=O)C3(C(=O)NO)CCN(c4nccs4)CC3)CC2)cc1 [Example 157]
0.587 nM | > 10000 nM | CCCCOc1ccc(N2CCN(S(=O)(=O)C3(C(=O)NO)CCN(c4ncccn4)CC3)CC2)cc1 [Example 159]
0.417 nM | > 10000 nM | CCCCOc1ccc(N2CCN(S(=O)(=O)C3(C(=O)NO)CCN(C(=O)c4cccs4)CC3)CC2)cc1 [Example 160]
2.91 nM | > 10000 nM | Cc1ccc(N2CCC(C(=O)NO)(S(=O)(=O)N3CCN(c4ccc(OCCCC(F)(F)F)cc4)CC3)CC2)cc1 [Example 161]
7.71 nM | > 10000 nM | O=C(NO)C1(S(=O)(=O)N2CCN(c3ccc(OCCN4CCCC4)cc3)CC2)CCOCC1 [Example 162]
22 nM | > 10000 nM | CCCCOc1ccc(N2CCN(S(=O)(=O)C3(C(=O)NO)CCN(CCOC)CC3)CC2)cn1 [Example 164]
1.03 nM | > 10000 nM | CCCCOc1c(F)cc(N2CCN(S(=O)(=O)C3(C(=O)NO)CCN(CCOC)CC3)CC2)cc1F [Example 165]
0.71 nM | > 10000 nM | COCCN1CCC(C(=O)NO)(S(=O)(=O)N2CCN(c3ccc(OCC(C)C)c(F)c3)CC2)CC1 [Example 166]
0.08 nM | 6220 nM | CCCCCc1ccc(N2CCN(S(=O)(=O)C3(C(=O)NO)CCOCC3)CC2)nc1 [Example 167]
1.88 nM | 450 nM | O=C(NO)C1(S(=O)(=O)N2CCN(c3ccccn3)CC2)CCOCC1 [Example 169]
0.96 nM | 7810 nM | O=C(NO)C1(S(=O)(=O)N2CCN(c3ccc(SC(F)(F)F)cc3)CC2)CCOCC1 [Example 170]
21.5 nM | > 10000 nM | CCCc1ccc(N2CCN(S(=O)(=O)C3(C(=O)NO)CCN(c4ccc(C)cc4)CC3)CC2)cc1 [Example 171]
0.696 nM | > 10000 nM | CCCCc1ccc(N2CCN(S(=O)(=O)C3(C(=O)NO)CCN(CCOC)CC3)CC2)cc1F [Example 173]
3.52 nM | 4650 nM | COCCN1CCC(C(=O)NO)(S(=O)(=O)N2CCN(c3ccc(C(C)=O)cc3)CC2)CC1 [Example 174]
8.25 nM | > 10000 nM | CCCNC(=O)c1ccc(N2CCN(S(=O)(=O)C3(C(=O)NO)CCN(CCOC)CC3)CC2)cc1 [Example 175]
1.73 nM | 1460 nM | COCCN1CCC(C(=O)NO)(S(=O)(=O)N2CCN(c3ccccn3)CC2)CC1 [Example 176]
0.847 nM | 7360 nM | CCCCC(=O)c1ccc(N2CCN(S(=O)(=O)C3(C(=O)NO)CCN(CCOC)CC3)CC2)cc1 [Example 177]
5.26 nM | > 10000 nM | CCCc1cnc(N2CCN(S(=O)(=O)C3(C(=O)NO)CCN(CCOC)CC3)CC2)nc1 [Example 178]
2.06 nM | > 10000 nM | CCCC(C)Cc1ccc(N2CCN(S(=O)(=O)C3(C(=O)NO)CCN(CCOC)CC3)CC2)cc1 (stereo not shown) [Example 189]
